The text below walks through data of patent US8436011B2, “Pyridinopyridinone derivatives, preparation thereof and therapeutic use thereof” (Sanofi, priority 2008, dated 2013).

Read-outs that look alike come from different tables or passages of the source.

Series [1] has as its target T1, fusion protein Tel/PDGF-R (PDGF-Rβ kinase domain) in HEK cells (Homo sapiens, UniProt P09619).
T1 construct: the transmembrane and intracellular part of the PDGF-Rβ receptor; N-terminal part of the Tel transcription factor (ETV6); expressed in transfected cells; host or cells: HEK cells (transient transfection); the other entry of the earlier key: ETV6 (P41212, Transcription factor ETV6)
The experiment in a line: Ex vivo activity: plasma of orally treated mice tested on PDGF-R autophosphorylation in HEK Tel/PDGF-R cells (ELISA). Also on record: species or system female Balb/c mice. To be noted: HEK293, mouse, po, 30 mg/kg po, read-out: % inhibition of autophosphorylation of PDGFR tyrosine kinase in HEK cells. On the procedure: Ex vivo activity of the compounds of the invention was measured. These compounds are thus administered orally to female Balb/c mice at a dose of 10, 30 or 100 mg/kg in suspension or in solution in a vehicle such as methylcellulose/Tween and the inhibition of the tyrosine kinase activity is measured in vitro in a cell test, using plasma collected at 15 minutes, 1 hour and 4 hours.
1) Protocol for Administration of the Products to the Mice
The products are prepared in a mortar with 0.5% Tween 80 and 0.6% methylcellulose qs final volume. Depending on the case, preparations of different vehicles may be used: water, mixture of labrasol solutol 5% glucose-water. The suspended or dissolved products are administered by gavage (10 ml/kg) to female Balb/c mice 8 to 15 weeks old.
The animals are then collected at the time given by the protocol (15 min, 1 hour, 4 hours, 16 hours).
The animals are anaesthetized by intraperitoneal injection (10 ml/kg) of a ketamine (0.1 g/kg)-xylazine (20 mg/kg) mixture. […] The blood sample is collected from the vein or the artery using a dry syringe and needle. The blood is immediately transferred into heparin lithium tubes (BD microtainer). Centrifugation for 3 minutes at 12 000 rpm allows recovery of the plasma, on which the biochemical test may be performed after storage by freezing at −20° C.
2) Preparation of the HEK Tel/PDGF-R Cells and Measurement of the Phosphorylation of PDGF-R
In order to detect the ex vivo activity of the products using the mouse plasmas, the HEK cells are transiently transfected beforehand with an expression vector coding for the fusion protein Tel/PDGF-R (fusion protein described previously). After 24 hours of transfection, the cells are deprived of serum overnight and then incubated for 30 minutes with the animal plasmas treated with the products of the invention. The cells are then lysed in RIPA buffer, and detection of the phosphorylation of PDGF-Rβ is then performed via the ELISA technique, using a commercial kit (R&D Systems, DYC1767). The results are expressed as a percentage of inhibition of the autophosphorylation.
In this test of measurement of the ex vivo activity, the effect of the compounds of the invention is quantified by the percentage of inhibition of phosphorylation of the kinase domain of the PDGF-Rβ receptor in HEK cells, induced by the inhibitory activity of the product present in the plasma of the treated animals, as described in the following table: […]
(In an ELISA, binding on a coated surface is turned into a signal by an enzyme label.)

For series [2], the target named is T2, fusion protein Tel/PDGF-Rβ (BaF3 Tel/PDGF cells) (Homo sapiens, UniProt P09619).
T2 construct: the transmembrane and intracellular part of the PDGF-Rβ receptor; N-terminal part of the Tel transcription factor (ETV6); expressed in transfected cells; host or cells: murine haematopoietic cell line BaF/3; the other entry of the earlier key: ETV6 (P41212, Transcription factor ETV6)
The experiment in a line: Inhibition of PDGF-Rβ tyrosine kinase activity: proliferation of BaF3 Tel/PDGF cells (CellTiter-Glo, 72 h). The series is classed as cell-based, murine. To be noted: 72 hours incubation, read-out: IC50 (concentration that inhibits 50% of the proliferation of the BaF3 Tel/PDGF cells). Here is the method: Measurement of Inhibition of the Tyrosine Kinase Activity of the PDGF Beta (PDGF-Rβ) (Baf-3 tel/PDGFIRβ) Receptor:
This test consists in evaluating the effects of the compounds on the tyrosine kinase activity of the PDGF beta receptor.
The inhibitory effect of the compounds according to the invention towards the tyrosine kinase activity of the PDGF-R receptor was evaluated on the murine haematopoietic cell line BaF/3 transfected with a plasmid coding for the fusion protein Tel/PDGF-Rβ. This fusion protein is found in chronic myelomonocytic myeloid leukaemias (CMML). It comprises the N-terminal part of the Tel transcription factor and the transmembrane and intracellular part of the PDGF-Rβ receptor. This fusion protein is present in dimerized form (presence of an oligomerization domain in the N-terminal part of Tel) and, as a result, leads to constitutive activity of the kinase domain of PDGF-Rβ. This line BaF3 Tel/PDGF has been described in the literature several times and especially, in detailed manner, in the article by M. Carroll et al., PNAS, 1996, 93, 14845-14850.
The BaF3 Tel/PDGF cells are washed with phosphate buffer and inoculated in 96-well plates, at a density of 5×10^4 cells/ml ([…]), in RPMI 1640 containing 10% FCS, in the presence or absence of the test compounds. After incubation for 72 hours, the viable cells are quantified by measuring the cellular ATP by means of the CellTiter-Glo® kit (Promega, Cat G7571). The cells are treated according to the instructions given by the kit manufacturer, and the luminescence is measured using a Luminoskan (Ascent, Labsystem) with the following parameters: measurement: single; integration time: 1000 ms, lag time: 5 s.
It is thus seen that the compounds according to the invention have inhibitory activity on the tyrosine kinase activity of PDGF-Rβ. This activity is given by the concentration that inhibits 50% of the proliferation of the BaF3 Tel/PDGF cells (IC50).
In general terms: Cellular ATP, detected with luciferase, serves as a proxy for viable cell number.

Broadly, the inhibition is the percentage by which the read-out fell short of the control. A word on the melting point: it is the temperature, or range, at which the solid turns liquid.

T1 sequence (P09619 with tags, fused parts or gaps): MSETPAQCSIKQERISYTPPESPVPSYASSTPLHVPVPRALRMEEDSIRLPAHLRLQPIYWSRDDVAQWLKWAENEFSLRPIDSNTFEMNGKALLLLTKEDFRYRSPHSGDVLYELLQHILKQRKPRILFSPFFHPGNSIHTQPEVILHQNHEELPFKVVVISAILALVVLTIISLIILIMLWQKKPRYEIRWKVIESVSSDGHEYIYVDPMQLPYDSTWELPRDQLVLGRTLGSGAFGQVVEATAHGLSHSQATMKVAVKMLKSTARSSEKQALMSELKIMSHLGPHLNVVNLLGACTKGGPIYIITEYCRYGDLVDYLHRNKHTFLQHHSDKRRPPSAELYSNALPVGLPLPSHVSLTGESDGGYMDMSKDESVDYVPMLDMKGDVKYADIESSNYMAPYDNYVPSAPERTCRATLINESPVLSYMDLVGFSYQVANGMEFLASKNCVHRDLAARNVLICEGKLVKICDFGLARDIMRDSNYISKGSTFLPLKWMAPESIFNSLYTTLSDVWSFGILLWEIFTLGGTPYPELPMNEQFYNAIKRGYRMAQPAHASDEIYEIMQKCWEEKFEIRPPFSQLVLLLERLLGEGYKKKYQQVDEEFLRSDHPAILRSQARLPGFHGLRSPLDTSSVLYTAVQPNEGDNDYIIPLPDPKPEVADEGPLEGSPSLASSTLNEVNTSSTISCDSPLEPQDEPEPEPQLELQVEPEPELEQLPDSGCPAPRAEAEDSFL
T2 sequence (P09619 with tags, fused parts or gaps): as above

For the compound `CCN1C[C@H](F)C[C@H]1CNC(=O)Cc1ccc(-c2ccc3c(=O)c(C(=O)NC)c(N)n(CC)c3n2)cc1` [compound 26, 2-amino-1-ethyl-7-{4-[2-({[(2S,4R)-1-ethyl-4-fluoropyrrolidin-2-yl]methyl}-amino)-2-oxoethyl]phenyl}-N-methyl-4-oxo-1,4-dihydro-1,8-naphthyridine-3-carboxamide], the inhibition at 30 mg/kg amounted to 58% in series [1] (plasma collected at 15 min), 67% in series [1] (plasma collected at 1 h) and 20% in series [1] (plasma collected at 4 h).
On to `CCn1c(N)c(C(=O)NC)c(=O)c2ccc(-c3ccc(CC(=O)NC[C@H]4CCCN4CCF)cn3)nc21` [compound 29, 2-amino-1-ethyl-7-{5-[2-({[(2R)-1-(2-fluoroethyl)pyrrolidin-2-yl]methyl}-amino)-2-oxoethyl]pyrid-2-yl}-N-methyl-4-oxo-1,4-dihydro-1,8-naphthyridine-3-carboxamide], for which, in series [2], the IC50 turned out to be 35 nM.
As to `CCn1c(N)c(C(=O)NC)c(=O)c2ccc(-c3ccc(CC(=O)NC[C@H]4CCCN4CC(F)F)cc3)nc21` [compound 31, 2-amino-7-{4-[2-({[(2R)-1-(2,2-difluoroethyl)pyrrolidin-2-yl]methyl}amino)-2-oxoethyl]phenyl}-1-ethyl-N-methyl-4-oxo-1,4-dihydro-1,8-naphthyridine-3-carboxamide], the inhibition at 30 mg/kg in series [1] (plasma collected at 15 min) is 85%; in series [1] (plasma collected at 1 h), 68%; in series [1] (plasma collected at 4 h) it was 42%.
The corresponding values for `CCn1c(N)c(C(=O)NC)c(=O)c2ccc(-c3ccc(CC(=O)NCCN4CCOCC4)cc3)nc21` [compound 18, 2-amino-1-ethyl-N-methyl-7-(4-{2-[(2-morpholin-4-ylethyl)amino]-2-oxoethyl}phenyl)-4-oxo-1,4-dihydro-1,8-naphthyridine-3-carboxamide] are 55%, 62% and 17%.
For the compound `CCN1CCCC1CNC(=O)CCCc1ccc(-c2ccc3c(=O)c(C(=O)NC)c(N)n(CC)c3n2)cc1` (stereo not shown) [compound 47, 2-amino-1-ethyl-7-[4-(4-{[(1-ethylpyrrolidin-2-yl)methyl]amino}-4-oxobutyl)phenyl]-N-methyl-4-oxo-1,4-dihydro-1,8-naphthyridine-3-carboxamide], the melting point is 230 °C. Besides, the IC50 in series [2] is 48 nM.
The corresponding values for `CCn1c(N)c(C(=O)NC)c(=O)c2ccc(-c3ccc(CC(=O)NCCCc4ccccc4)cc3)nc21` [compound 41, 2-amino-1-ethyl-N-methyl-4-oxo-7-(4-{2-oxo-2-[(3-phenylpropyl)amino]-ethyl}phenyl)-1,4-dihydro-1,8-naphthyridine-3-carboxamide] are 278 °C and 5.5 nM.
On to `CCn1c(N)c(C(=O)NC)c(=O)c2ccc(-c3ccc(CC(=O)NC[C@H]4CCCN4CC(F)F)cn3)nc21` [compound 34, 2-amino-7-{5-[2-({[(2R)-1-(2,2-difluoroethyl)pyrrolidin-2-yl]methyl}amino)-2-oxoethyl]pyrid-2-yl}-1-ethyl-N-methyl-4-oxo-1,4-dihydro-1,8-naphthyridine-3-carboxamide], for which the results for the inhibition at 30 mg/kg in series [1] (plasma collected at 15 min), in series [1] (plasma collected at 1 h) and in series [1] (plasma collected at 4 h) were 73%, 64% and 58%, respectively.
With `CCCNC(=O)c1c(N)n(CC)c2nc(-c3ccc(CC(=O)NCC4CCCN4CC)cc3)ccc2c1=O` (stereo not shown) [compound 48, 2-amino-1-ethyl-7-[4-(2-{[(1-ethylpyrrolidin-2-yl)methyl]amino}-2-oxoethyl)phenyl]-4-oxo-N-propyl-1,4-dihydro-1,8-naphthyridine-3-carboxamide], the melting point amounted to 264 °C. Also, the IC50 in series [2] amounted to 162 nM.
